{
  "source": "ChEMBL document CHEMBL1135866",
  "about": "“Photochemical preparation of a pyridone containing tetracycle: a Jak protein kinase inhibitor” (Bioorg Med Chem Lett, 2002)",
  "key": {"[1]": {"assay": "Inhibition of IL-2 induced JAK-1/JAK-3-associated murine T cell lymphoma cell proliferation", "assay_type": "functional, cell-based", "settings": "Mus musculus"}, "[2]": {"assay": "Inhibition of IL-4 induced JAK-1/JAK-3 associated murine T cell lymphoma cell proliferation", "assay_type": "functional, cell-based", "settings": "Mus musculus"}, "CTLL": {"test_system": "CTLL", "assay": "Inhibition of PMA-induced murine T cell lymphoma cell proliferation", "assay_type": "functional, cell-based", "settings": "Mus musculus"}, "[3]": {"biological_target": "Cyclin-dependent kinase 2 (Homo sapiens, UniProt P24941)", "assay": "Inhibition of cyclin dependent kinase 2"}, "[4]": {"biological_target": "Fibroblast growth factor receptor 2 (Homo sapiens, UniProt P21802)", "sequence (P21802 whole entry)": "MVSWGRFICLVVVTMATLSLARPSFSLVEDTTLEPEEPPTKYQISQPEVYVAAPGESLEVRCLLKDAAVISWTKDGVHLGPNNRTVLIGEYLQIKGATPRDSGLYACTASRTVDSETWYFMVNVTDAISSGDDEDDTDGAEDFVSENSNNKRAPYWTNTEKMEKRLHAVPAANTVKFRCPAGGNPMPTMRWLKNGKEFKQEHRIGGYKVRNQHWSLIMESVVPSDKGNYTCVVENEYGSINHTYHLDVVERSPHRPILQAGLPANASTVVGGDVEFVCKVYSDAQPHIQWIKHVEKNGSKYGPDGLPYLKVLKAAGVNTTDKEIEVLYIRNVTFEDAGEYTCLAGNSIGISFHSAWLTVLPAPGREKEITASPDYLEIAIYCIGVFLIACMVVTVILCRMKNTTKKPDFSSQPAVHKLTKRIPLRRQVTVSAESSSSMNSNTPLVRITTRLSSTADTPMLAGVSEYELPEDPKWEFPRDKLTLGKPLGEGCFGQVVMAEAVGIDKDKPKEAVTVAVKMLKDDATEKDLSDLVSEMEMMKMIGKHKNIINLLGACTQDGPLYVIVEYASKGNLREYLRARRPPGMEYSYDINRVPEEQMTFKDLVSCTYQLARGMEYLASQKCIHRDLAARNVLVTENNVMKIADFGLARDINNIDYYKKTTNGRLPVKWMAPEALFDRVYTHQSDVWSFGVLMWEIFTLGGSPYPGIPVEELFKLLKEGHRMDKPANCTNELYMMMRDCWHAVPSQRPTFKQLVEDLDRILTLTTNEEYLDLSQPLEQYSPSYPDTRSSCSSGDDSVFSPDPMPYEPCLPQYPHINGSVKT", "assay": "Inhibition of Fibroblast growth factor receptor 2"}, "[5]": {"biological_target": "Tyrosine-protein kinase HCK (Homo sapiens, UniProt P08631)", "sequence (P08631 whole entry)": "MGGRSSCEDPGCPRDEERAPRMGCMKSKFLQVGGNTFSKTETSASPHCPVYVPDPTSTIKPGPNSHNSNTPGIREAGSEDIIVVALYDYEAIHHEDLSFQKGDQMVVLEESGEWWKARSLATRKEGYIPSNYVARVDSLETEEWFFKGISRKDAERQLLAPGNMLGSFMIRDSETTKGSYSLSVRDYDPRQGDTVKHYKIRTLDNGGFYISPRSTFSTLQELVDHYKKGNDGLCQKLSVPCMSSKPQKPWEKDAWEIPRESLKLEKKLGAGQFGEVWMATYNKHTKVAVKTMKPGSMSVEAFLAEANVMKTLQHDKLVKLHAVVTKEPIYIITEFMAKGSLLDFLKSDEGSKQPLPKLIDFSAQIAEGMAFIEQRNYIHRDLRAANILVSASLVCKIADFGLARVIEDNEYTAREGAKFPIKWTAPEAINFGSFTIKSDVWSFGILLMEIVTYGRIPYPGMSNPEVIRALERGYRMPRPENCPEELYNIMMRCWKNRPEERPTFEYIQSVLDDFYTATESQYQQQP", "assay": "Inhibition of protein kinase Hck"}, "[6]": {"biological_target": "T1, Inhibitor of nuclear factor kappa-B kinase subunit beta (Homo sapiens, UniProt O14920)", "T1 sequence (O14920 whole entry)": "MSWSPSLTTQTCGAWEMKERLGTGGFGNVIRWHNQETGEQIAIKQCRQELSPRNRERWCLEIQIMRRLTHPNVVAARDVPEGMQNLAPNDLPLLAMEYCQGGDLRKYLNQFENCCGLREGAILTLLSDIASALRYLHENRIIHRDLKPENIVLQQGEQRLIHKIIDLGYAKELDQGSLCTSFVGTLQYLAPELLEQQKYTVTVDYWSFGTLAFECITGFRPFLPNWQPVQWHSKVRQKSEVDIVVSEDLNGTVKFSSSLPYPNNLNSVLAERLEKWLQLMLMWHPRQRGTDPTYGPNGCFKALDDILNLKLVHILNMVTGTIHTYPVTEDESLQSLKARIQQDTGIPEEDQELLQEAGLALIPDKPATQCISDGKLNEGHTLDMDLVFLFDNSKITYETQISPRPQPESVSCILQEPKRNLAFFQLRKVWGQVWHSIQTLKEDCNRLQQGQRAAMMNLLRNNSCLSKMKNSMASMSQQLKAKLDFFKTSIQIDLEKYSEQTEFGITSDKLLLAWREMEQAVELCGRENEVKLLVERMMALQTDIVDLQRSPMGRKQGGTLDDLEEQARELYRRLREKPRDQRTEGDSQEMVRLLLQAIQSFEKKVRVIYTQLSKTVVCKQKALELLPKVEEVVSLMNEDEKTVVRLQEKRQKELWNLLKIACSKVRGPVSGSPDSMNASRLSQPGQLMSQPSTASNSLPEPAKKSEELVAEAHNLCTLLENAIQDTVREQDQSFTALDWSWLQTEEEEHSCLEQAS", "assay": "Inhibition of I-kappa-B kinase 2"}, "[7]": {"biological_target": "Protein kinase C alpha type (Homo sapiens, UniProt P17252)", "assay": "Inhibition of protein kinase C alpha"}, "Angiopoietin-1 receptor": {"biological_target": "Angiopoietin-1 receptor (Homo sapiens, UniProt Q02763)", "assay": "Inhibition of Tek kinase"}, "[8]": {"biological_target": "Vascular endothelial growth factor receptor 3 (Homo sapiens, UniProt P35916)", "sequence (P35916 whole entry)": "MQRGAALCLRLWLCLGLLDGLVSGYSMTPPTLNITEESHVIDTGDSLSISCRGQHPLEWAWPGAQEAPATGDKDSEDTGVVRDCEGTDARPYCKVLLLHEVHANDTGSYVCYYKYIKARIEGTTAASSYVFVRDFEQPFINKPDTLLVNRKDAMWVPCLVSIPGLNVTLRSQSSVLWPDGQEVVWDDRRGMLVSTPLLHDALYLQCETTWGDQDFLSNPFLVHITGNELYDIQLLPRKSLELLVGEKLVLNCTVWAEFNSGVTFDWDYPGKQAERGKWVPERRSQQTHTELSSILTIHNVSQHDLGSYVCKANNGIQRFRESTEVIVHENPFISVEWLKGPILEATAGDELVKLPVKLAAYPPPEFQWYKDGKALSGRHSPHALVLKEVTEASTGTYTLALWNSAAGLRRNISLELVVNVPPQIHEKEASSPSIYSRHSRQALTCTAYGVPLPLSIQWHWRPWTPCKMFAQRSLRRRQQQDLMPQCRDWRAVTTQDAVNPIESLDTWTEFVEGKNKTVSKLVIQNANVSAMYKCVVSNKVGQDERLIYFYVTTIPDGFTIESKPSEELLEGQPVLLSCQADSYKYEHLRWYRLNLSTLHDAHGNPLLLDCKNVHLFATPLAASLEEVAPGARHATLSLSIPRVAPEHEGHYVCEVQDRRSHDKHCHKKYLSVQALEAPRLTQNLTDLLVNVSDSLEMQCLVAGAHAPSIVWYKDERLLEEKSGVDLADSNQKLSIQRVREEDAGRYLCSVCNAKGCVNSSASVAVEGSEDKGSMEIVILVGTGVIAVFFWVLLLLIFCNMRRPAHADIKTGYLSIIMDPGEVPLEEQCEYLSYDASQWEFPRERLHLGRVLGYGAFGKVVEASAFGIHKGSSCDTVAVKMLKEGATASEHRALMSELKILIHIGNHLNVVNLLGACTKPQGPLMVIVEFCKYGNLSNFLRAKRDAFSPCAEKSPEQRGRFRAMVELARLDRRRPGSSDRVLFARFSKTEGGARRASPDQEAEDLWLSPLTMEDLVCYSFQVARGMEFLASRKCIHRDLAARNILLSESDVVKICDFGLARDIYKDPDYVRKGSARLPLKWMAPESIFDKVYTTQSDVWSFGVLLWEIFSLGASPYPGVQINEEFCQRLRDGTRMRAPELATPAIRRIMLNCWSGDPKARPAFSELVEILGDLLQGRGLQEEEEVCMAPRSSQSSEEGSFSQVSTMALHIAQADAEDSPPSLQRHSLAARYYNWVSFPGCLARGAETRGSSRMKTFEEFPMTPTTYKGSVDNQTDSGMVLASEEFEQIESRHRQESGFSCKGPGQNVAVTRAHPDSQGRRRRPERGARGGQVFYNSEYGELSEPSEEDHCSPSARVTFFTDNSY", "assay": "Inhibition of Vascular endothelial growth factor receptor 3"}, "[9]": {"biological_target": "RAF proto-oncogene serine/threonine-protein kinase (Homo sapiens, UniProt P04049)", "sequence (P04049 whole entry)": "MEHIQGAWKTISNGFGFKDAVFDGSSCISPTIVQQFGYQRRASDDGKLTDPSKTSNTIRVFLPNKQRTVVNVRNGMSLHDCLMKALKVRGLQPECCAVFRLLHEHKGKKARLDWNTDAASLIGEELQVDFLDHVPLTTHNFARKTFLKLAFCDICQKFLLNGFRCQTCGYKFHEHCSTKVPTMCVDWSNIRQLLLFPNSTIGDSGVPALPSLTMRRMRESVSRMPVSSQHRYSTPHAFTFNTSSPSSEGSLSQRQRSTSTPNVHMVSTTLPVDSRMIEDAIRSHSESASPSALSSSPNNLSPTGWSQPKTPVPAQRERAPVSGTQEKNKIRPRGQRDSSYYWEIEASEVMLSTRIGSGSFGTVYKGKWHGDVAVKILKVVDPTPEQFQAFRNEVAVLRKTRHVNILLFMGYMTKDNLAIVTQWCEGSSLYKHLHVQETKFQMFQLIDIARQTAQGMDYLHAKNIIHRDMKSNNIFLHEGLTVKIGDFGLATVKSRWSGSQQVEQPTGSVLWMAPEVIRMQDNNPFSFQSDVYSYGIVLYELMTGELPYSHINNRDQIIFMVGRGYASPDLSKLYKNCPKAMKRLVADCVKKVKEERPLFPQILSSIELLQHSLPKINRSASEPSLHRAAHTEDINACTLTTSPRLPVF", "assay": "Inhibition of protein kinase Raf"}, "[10]": {"assay": "Inhibition of protein kinase cAMP-dependent protein kinase"}},
  "data": [
    {"smiles": "CC(C)(C)c1nc2c3ccc(F)cc3c3c(=O)[nH]ccc3c2[nH]1", "values": [
      {"measurement": "IC50", "setting": "[1]", "value": 0.1, "unit": "µM"},
      {"measurement": "IC50", "setting": "[2]", "value": 0.052, "unit": "µM"},
      {"measurement": "IC50", "setting": "CTLL", "value": 3.1, "unit": "µM"},
      {"measurement": "IC50", "setting": "[3]", "value": 3.3, "unit": "µM"},
      {"measurement": "IC50", "setting": "[4]", "value": 0.94, "unit": "µM"},
      {"measurement": "IC50", "setting": "[5]", "value": 7.7, "unit": "µM"},
      {"measurement": "IC50", "setting": "[6]", "value": 0.3, "unit": "µM"},
      {"measurement": "IC50", "setting": "[7]", "value": 1.2, "unit": "µM"},
      {"measurement": "IC50", "setting": "Angiopoietin-1 receptor", "value": 24, "unit": "µM"},
      {"measurement": "IC50", "setting": "[8]", "value": 0.69, "unit": "µM"},
      {"measurement": "IC50", "setting": "[9]", "value": "> 10", "unit": "µM"},
      {"measurement": "IC50", "setting": "[10]", "value": 7.1, "unit": "µM"}
    ]}
  ]
}
